This assay addresses T1, H. sapiens SLC2A9 variant 2 (GLUT9B) (Homo sapiens, UniProt Q9NRM0).
T1 sequence (Q9NRM0 1-511 isoform Q9NRM0-2): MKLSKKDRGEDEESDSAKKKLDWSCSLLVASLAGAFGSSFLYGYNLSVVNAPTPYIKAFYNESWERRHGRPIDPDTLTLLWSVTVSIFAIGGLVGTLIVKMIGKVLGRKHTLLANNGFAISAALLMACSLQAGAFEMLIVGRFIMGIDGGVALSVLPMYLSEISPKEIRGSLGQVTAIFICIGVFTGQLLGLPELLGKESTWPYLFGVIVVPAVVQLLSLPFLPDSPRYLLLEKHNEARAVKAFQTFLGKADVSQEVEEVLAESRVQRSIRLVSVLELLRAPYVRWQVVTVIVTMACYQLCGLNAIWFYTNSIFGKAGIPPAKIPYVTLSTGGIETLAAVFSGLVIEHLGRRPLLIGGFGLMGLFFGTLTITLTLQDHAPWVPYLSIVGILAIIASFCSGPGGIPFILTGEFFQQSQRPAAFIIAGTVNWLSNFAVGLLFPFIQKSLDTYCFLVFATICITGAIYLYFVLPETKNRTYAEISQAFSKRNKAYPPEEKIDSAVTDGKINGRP
The assay can be described thus: GLUT9 functional assay: uric acid uptake in HEK293T cells, allantoin formation by MS/MS as proxy of GLUT9B inhibition. The note with it: HEK293T cells stably expressing GLUT9B and transiently A. oryzae uricase, uric acid 0.3 mM, 37° C. It counts as cell-based. The procedure, abridged:
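Inhibition of GLUT9B-mediated urate uptake read as reduced allantoin formation, measured by MS/MS against allantoin standards in HEK293T matrix with log-logistic fitting. Stable GLUT9B HEK293T cells carrying transfected A. oryzae uricase were incubated 15 or 60 min at 37° C with uric acid at Km (0.3 mM), pH 7.4 gluconate buffer.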

The mark [1] stands for this setting: 15 minute assay, read-out: 15 min IC50.
Setting [2] is: 60 minute assay, read-out: 60 min IC50.

As a reminder, the IC50 is the concentration needed to halve the response being measured.

Like-named read-outs stand apart in the source and are kept apart here.

`O=C(O)C1CCN(c2nc(CCC3CC3)cnc2-c2cc(F)c3occc3c2)CC1` [Compound 73, 1-(6-(2-cyclopropylethyl)-3-(7-fluorobenzofuran-5-yl)pyrazin-2-yl)piperidine-4-carboxylic acid]: the IC50 under setting [1] is below 500 nM. Turning to `COCCNc1ccc(-c2ncc(CCC(F)(F)F)nc2N2CCC(C(=O)O)CC2)cc1` [Compound 103, 1-(3-(4-((2-methoxyethyl)amino)phenyl)-6-(3,3,3-trifluoropropyl)pyrazin-2-yl)piperidine-4-carboxylic acid], under setting [1], the IC50 lay within 500 to 2000 nM. On to `CCCCc1cnc(-c2ccc(OC)cc2)c(N2CCC(C)(C(=O)O)CC2)n1` [Compound 14, 1-(6-Butyl-3-(4-Methoxyphenyl)Pyrazin-2-yl)-4-Methylpiperidine-4-carboxylic acid], for which, under setting [1], the IC50 is below 500 nM. Still for that read-out and setting: the value for `O=C(O)C1CCN(c2nc(CCC(F)(F)F)cnc2-c2ccc3oc(F)cc3c2)CC1` [Compound 60, 1-(3-(2-fluorobenzofuran-5-yl)-6-(3,3,3-trifluoropropyl)pyrazin-2-yl)piperidine-4-carboxylic acid] was 500 to 2000 nM; that for `CCCCCc1cnc(-c2cc(F)c3occc3c2)c(N2CCC(C(=O)O)CC2)n1` [Compound 147, 1-(3-(7-fluorobenzofuran-5-yl)-6-pentylpyrazin-2-yl)piperidine-4-carboxylic acid] was below 500 nM. For the compound `COCCCc1cnc(-c2ccc(SC)cc2)c(N2CCC(C(=O)O)CC2)n1` [Compound 254, 1-(6-(3-methoxypropyl)-3-(4-(methylthio)phenyl)pyrazin-2-yl)piperidine-4-carboxylic acid], the IC50 under setting [2] is below 500 nM. In the case of `O=C(O)C1CCN(c2nc(CCC(F)(F)C(F)(F)F)cnc2-c2ccc3c(c2)OCO3)CC1` [Compound 126, 1-(3-(benzo[d][1,3]dioxol-5-yl)-6-(3,3,4,4,4-pentafluorobutyl)pyrazin-2-yl)piperidine-4-carboxylic acid], the IC50 under setting [1] is below 500 nM. On the same count and under the same terms, the value for `O=C(O)C1CCN(c2nc(CCCC(F)F)cnc2-c2ccc3c(c2)OCO3)CC1` [Compound 144, 1-(3-(benzo[d][1,3]dioxol-5-yl)-6-(4,4-difluorobutyl)pyrazin-2-yl)piperidine-4-carboxylic acid] was below 500 nM. On the same count and under the same terms, next, `O=C(O)C1CCN(c2nc(COCC(F)(F)F)cnc2-c2ccc3oc(F)cc3c2)CC1` [Compound 57, 1-(3-(2-fluorobenzofuran-5-yl)-6-((2,2,2-trifluoroethoxy)methyl)pyrazin-2-yl)piperidine-4-carboxylic acid]: above 2000 nM; `O=C(O)c1c[nH]c2cc(-c3cc(COC(F)(F)F)cnc3-c3cc(F)c4occc4c3)ccc12` [Compound 59, 6-(2-(7-fluorobenzofuran-5-yl)-5-((trifluoromethoxy)methyl)pyridin-3-yl)-1H-indole-3-carboxylic acid]: below 500 nM. With `COCCCc1cnc(-c2cc(F)c3occc3c2)c(N2CCC(O)(C(=O)O)CC2)n1` [Compound 185, 1-(3-(7-fluorobenzofuran-5-yl)-6-(3-methoxypropyl)pyrazin-2-yl)-4-hydroxypiperidine-4-carboxylic acid], the IC50 under setting [2] was 500 to 2000 nM. Consider `CCCCc1cnc(-c2ccc(OCCN(C)C)cc2)c(N2CCC(C(=O)O)CC2)n1` [Compound 6, 1-(6-Butyl-3-(4-(2-(Dimethylamino)Ethoxy)Phenyl)Pyrazin-2-yl)piperidine-4-carboxylic acid], for which the IC50 under setting [1] was above 2000 nM. Take `COCCCc1cnc(-c2ccc3occc3n2)c(N2CCC(C(=O)O)CC2)n1` [Compound 241, 1-(3-(furo[3,2-b]pyridin-5-yl)-6-(3-methoxypropyl)pyrazin-2-yl)piperidine-4-carboxylic acid]: the IC50 under setting [2] is above 2000 nM. `COCCCCc1cnc(-c2ccc3c(c2)OCO3)c(N2CCC(C(=O)O)CC2)n1` [Compound 140, 1-(3-(benzo[d][1,3]dioxol-5-yl)-6-(4-methoxybutyl)pyrazin-2-yl)piperidine-4-carboxylic acid]: the IC50 under setting [1] is below 500 nM. Same read-out and setting: the value for `CCCCc1cnc(-c2ccc(OC)cc2)c(-c2ccc3c(C(=O)O)coc3c2)c1` [Compound 40, 6-(5-butyl-2-(4-methoxyphenyl)pyridin-3-yl)benzofuran-3-carboxylic acid] was below 500 nM; that for `CCCCc1cnc(-c2ccc(OC)cc2)c(-c2ccc3c(C(=O)O)c[nH]c3c2)c1` [Compound 39, 6-(5-butyl-2-(4-methoxyphenyl)pyridin-3-yl)-1H-indole-3-carboxylic acid] was below 500 nM; that for `O=C(O)C1CCN(c2nc(COCC(F)(F)F)cnc2-c2ccc(OC3CC3)c(F)c2)CC1` [Compound 76, 1-(3-(4-cyclopropoxy-3-fluorophenyl)-6-((2,2,2-trifluoroethoxy)methyl)pyrazin-2-yl)piperidine-4-carboxylic acid] was 500 to 2000 nM. Consider `COCCCc1cnc(-c2cc(C)c3occc3c2)c(N2CCC(C(=O)O)CC2)n1` [Compound 239, 1-(6-(3-methoxypropyl)-3-(7-methylbenzofuran-5-yl)pyrazin-2-yl)piperidine-4-carboxylic acid], for which, under setting [2], the IC50 is below 500 nM. Consider `O=C(O)C1CCN(c2nc(COCC(F)(F)F)cnc2-c2ccc(OC3CC3)cc2)CC1` [Compound 75, 1-(3-(4-cyclopropoxyphenyl)-6-((2,2,2-trifluoroethoxy)methyl)pyrazin-2-yl)piperidine-4-carboxylic acid], for which, under setting [1], the IC50 is above 2000 nM. `COCCCc1cnc(-c2ccc3c(c2)COC3=O)c(N2CCC(C(=O)O)CC2)c1` [Compound 232, 1-(5-(3-methoxypropyl)-2-(1-oxo-1,3-dihydroisobenzofuran-5-yl)pyridin-3-yl)piperidine-4-carboxylic acid]: the IC50 under setting [2] is below 500 nM. For `COCCOc1ccc(-c2ncc(CCC3CC3)nc2N2CCC(C(=O)O)CC2)cc1` [Compound 74, 1-(6-(2-cyclopropylethyl)-3-(4-(2-methoxyethoxy)phenyl)pyrazin-2-yl)piperidine-4-carboxylic acid], under setting [1], the IC50 was in the range of 500 to 2000 nM. On to `COC1(C(=O)O)CCN(c2nc(CCC(F)(F)F)cnc2-c2cc(F)c3occc3c2)CC1` [Compound 92, 1-(3-(7-fluorobenzofuran-5-yl)-6-(3,3,3-trifluoropropyl)pyrazin-2-yl)-4-methoxypiperidine-4-carboxylic acid], for which the IC50 under setting [1] was 500 to 2000 nM. For `COCCCc1cnc(-c2ccc3c(C)[nH]nc3c2)c(N2CCC(C(=O)O)CC2)n1` [Compound 197, 1-(6-(3-methoxypropyl)-3-(3-methyl-2H-indazol-6-yl)pyrazin-2-yl)piperidine-4-carboxylic acid], the IC50 under setting [2] is above 2000 nM. With `O=C(O)C1CCN(c2nc(CCC(F)(F)F)cnc2-c2ccc3c(c2)OC(F)(F)O3)CC1` [Compound 164, 1-(3-(2,2-difluorobenzo[d][1,3]dioxol-5-yl)-6-(3,3,3-trifluoropropyl)pyrazin-2-yl)piperidine-4-carboxylic acid], the IC50 under setting [1] was in the range of 500 to 2000 nM.

As to `O=c1[nH]c(C2CCN(c3nc(COCC(F)(F)F)cnc3-c3cc(F)c4occc4c3)CC2)no1` [Compound 82, 3-(1-(3-(7-fluorobenzofuran-5-yl)-6-((2,2,2-trifluoroethoxy)methyl)pyrazin-2-yl)piperidin-4-yl)-1,2,4-oxadiazol-5(4H)-one], the IC50 under setting [1] was below 500 nM. `O=C(O)C1CCN(c2nc(CCCC(F)F)cnc2-c2cc(F)c3occc3c2)CC1` [Compound 188, 1-(6-(4,4-difluorobutyl)-3-(7-fluorobenzofuran-5-yl)pyrazin-2-yl)piperidine-4-carboxylic acid]: under setting [2], the IC50 is below 500 nM. On to `O=C(O)C1CCN(c2nc(CCCC(F)(F)F)cnc2-c2ccc3occc3c2)CC1` [Compound 123, 1-(3-(benzofuran-5-yl)-6-(4,4,4-trifluorobutyl)pyrazin-2-yl)piperidine-4-carboxylic acid], for which the IC50 under setting [1] was below 500 nM. For the compound `O=C(O)CC1CCN(c2nc(CCC(F)(F)F)cnc2-c2cc(F)c3occc3c2)C1` (centres unmarked) [Compound 88, 2-(1-(3-(7-fluorobenzofuran-5-yl)-6-(3,3,3-trifluoropropyl)pyrazin-2-yl)pyrrolidin-3-yl)acetic acid], under setting [1], the IC50 fell in the range of 500 to 2000 nM. The same measure, in the same setting: next, `CCCCc1cnc(-c2cc(F)c3occc3c2)c(N2CCC(C(=O)O)CC2)n1` [Compound 9, 1-(6-Butyl-3-(7-Fluorobenzofuran-5-yl)Pyrazin-2-yl)Piperidine-4-carboxylic acid]: below 500 nM. Take `COCCCc1cnc(-c2cc(F)c3occc3c2)c(N2CCC(C(=O)O)CC2)c1` [Compound 168, 1-(2-(7-Fluorobenzofuran-5-yl)-5-(3-Methoxypropyl)Pyridin-3-yl)piperidine-4-carboxylic acid]: the IC50 is below 500 nM under setting [1] and below 500 nM under setting [2].

On to `COCCCc1cnc(-c2cc(F)c3c(c2)OCO3)c(N2CCC(C(=O)O)CC2)n1` [Compound 190, 1-(3-(7-Fluorobenzo[d][1,3]dioxol-5-yl)-6-(3-Methoxypropyl)Pyrazin-2-yl)piperidine-4-carboxylic acid], for which, under setting [2], the IC50 is below 500 nM.

The values are drawn from patent US20250179032A1, “HETEROCYCLIC INHIBITORS OF GLUT9 FOR TREATMENT OF DISEASE” (HORIZON THERAPEUTICS IRELAND DAC, priority 2022, published 2025).
